This note sets out measurements from patent US20250163057A1, “DCN-1 MODULATING COMPOUNDS AND METHODS OF USE THEREOF” (Cellarity, Inc., priority 2023, published 2025).

Test [1] has as its system Cullin-3 (CUL3) neddylation. Briefly: AlphaLISA assay for Cullin-3 (CUL3) neddylation in TF 1 cells. Format: cell-based. The following applies: Homo sapiens, TF-1, 3 h, 3 hours treatment. The method, boiled down:
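Neddylated CUL3 was quantified by AlphaLISA in lysates of TF 1 cells exposed for 3 h to test compound in IMDM without supplements. Percent inhibition set between vehicle and 1 μM DI-1548 positive control; IC50 derived by Hill-equation fitting of dose-response curves.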

For test [2], the target named is DCN1 (DCUND1) protein PONY domain (Homo sapiens (Human), UniProt Q96GG9). Briefly: TR-FRET assay, DCN1 binding with FAM-labeled probe. The method, boiled down:
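First, the E. coli-derived PONY domain was biotinylated and paired with streptavidin Tb cryptate. Compounds in 0.1% DMSO were then added to DCN1 and FAM-probe (5 nM/20 nM, or 0.31 nM/900 nM total with 800 nM unlabelled) in TritonX, 200 mM NaCl buffer. Finally, TR-FRET ratios were recorded at 1, 5 and 24 hrs.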

For a further test, the target named is DCN1 protein (Homo sapiens (Human), UniProt Q96GG9). Briefly: Intact Protein MS Analysis with the RapidFire-TOF System (covalent adduct formation). The following applies: MS Emax; 400 nM DCN1, 3 hours at room temperature. Type of test: binding. The method, boiled down:
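Tag-cleaved human DCN1 (400 nM) expressed in E. coli, in 25 mM Tris-HCl, 200 mM NaCl, 1 mM DTT, was incubated with 11 compound concentrations for 3 h at room temperature and quenched with 0.2% formic acid. Intact-protein Q-TOF MS with deconvolution detected the compound adduct mass.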

The subject of test [3] is fetal hemoglobin gene HBG1. The test can be described thus: HBG1 Nanostring Assay in CD34+ HSPC erythroid differentiation culture. Type of test: cell-based, human. The following applies: for EC50: Homo sapiens, 240 h, HBG1 induction, Day10 of erythroid differentiation; for Nanostring Ymax obs (%): relative to a control compound (C1). The procedure, abridged: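 HBG1 counts came from direct nCounter hybridization (67° C, 22 h) of day-10 lysates, normalized to ERCC positive controls and a housekeeping gene, giving EC50 and Ymax versus a reference compound. Compounds in 0.1% DMSO were present from day −2 while cells underwent EPO/SCF/IL-3 erythroid differentiation, with IL-3 dropped at day 7, at 37° C.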

[4] abbreviates: 24 hr after treatment with compound, read-out: TR FRET IC50 24 hr.
Setting [5] is: read-out: TR FRET IC50 1 hr, 1 hr after treatment with compound.
[6] abbreviates: TR FRET IC50 1 hr (nM), 1 hr after treatment with compound.

Like-named read-outs stand apart in the source and are kept apart here. Where only a bound is given, the exact number is not on record here.

DCN1 protein, sequence (Q96GG9 whole entry): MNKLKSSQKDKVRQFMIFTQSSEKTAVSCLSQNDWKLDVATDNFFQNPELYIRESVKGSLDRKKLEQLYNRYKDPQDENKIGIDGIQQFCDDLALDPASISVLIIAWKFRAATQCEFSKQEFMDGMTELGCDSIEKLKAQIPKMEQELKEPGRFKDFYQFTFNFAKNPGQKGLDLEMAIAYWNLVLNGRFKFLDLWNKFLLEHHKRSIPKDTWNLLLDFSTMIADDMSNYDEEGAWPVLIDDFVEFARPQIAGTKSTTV
DCN1 (DCUND1) protein PONY domain, sequence (Q96GG9 60-248): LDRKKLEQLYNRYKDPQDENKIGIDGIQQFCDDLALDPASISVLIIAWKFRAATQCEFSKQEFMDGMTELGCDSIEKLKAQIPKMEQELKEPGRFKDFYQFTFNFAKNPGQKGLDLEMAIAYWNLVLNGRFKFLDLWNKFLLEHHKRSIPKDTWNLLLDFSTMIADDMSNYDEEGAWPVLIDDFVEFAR

In the case of `CCN1C(=O)[C@@H](NC(=O)c2cccc(C(F)(F)F)c2)[C@H](c2ccc(F)cc2)c2c(CNC(=O)C3=C(C(=O)OC)CC3)nn(-c3ccccc3)c21` (racemic) [Compound I-97], the IC50 is no more than 0.1 µM in test [1], 200 to 1000 nM in test [2] (setting [4]) and no more than 200 nM in test [2] (setting [5]). Further, the “% Adduct Formation” value on DCN1 protein was “+ (MS Emax % adduct formation greater than or equal to 0.0 and less than or equal to 30.0)”. The same compound showed an EC50 in test [3] of 0.1 to 1 µM. For the same compound, in test [3], the “Nanostring Ymax obs (%)” value is “++ (Nanostring Ymax greater than 50.0 and less than or equal to 100.0)”.
For the compound `CCN1C(=O)[C@@H](NC(=O)c2cccc(C(F)(F)F)c2)[C@@H](c2ccc(F)cc2)c2c(C(=O)N3CC(F)(F)C[C@H]3C#N)nn(C3CCOCC3)c21` [Compound I-361], the values for the IC50 in test [1], in test [2] (setting [4]) and in test [2] (setting [5]) were no more than 0.1 µM, no more than 200 nM and no more than 200 nM, respectively. Further, the “% Adduct Formation” value at DCN1 protein is “+++ (MS Emax % adduct formation greater than 80.0 and less than or equal to 100.0)”. Also, in test [3], the EC50 was no more than 0.1 µM. Besides, the “Nanostring Ymax obs (%)” value in test [3] is “+++ (Nanostring Ymax greater than 100.0)”.
For the compound `C=C(CN1CCOCC1)C(=O)NCc1nn(-c2ccccc2)c2c1[C@@H](c1ccc(F)cc1)[C@H](NC(=O)c1cccc(C(F)(F)F)c1)C(=O)N2CC` (racemic) [Compound I-58], the values for the IC50 in test [1], in test [2] (setting [4]) and in test [2] (setting [5]) were no more than 0.1 µM, no more than 200 nM and no more than 200 nM, respectively. For the same compound, the “% Adduct Formation” value at DCN1 protein was “+ (MS Emax % adduct formation greater than or equal to 0.0 and less than or equal to 30.0)”. The EC50 in test [3] is greater than 1 µM. Further, the “Nanostring Ymax obs (%)” value in test [3] is “+ (Nanostring Ymax greater than or equal to 0.0 and less than or equal to 50.0)”.
For `CCN1C(=O)[C@@H](NC(=O)c2cccc(C(F)(F)F)c2)[C@@H](c2ccc(F)cc2)c2c(C(=O)N3[C@H](C#N)C[C@H]4C[C@H]43)nn(C3COC3)c21` [Compound I-362, N-((4S,5S)-3-((1R,3S,5R)-3-cyano-2-azabicyclo[3.1.0]hexane-2-carbonyl)-7-ethyl-4-(4-fluorophenyl)-1-(oxetan-3-yl)-6-oxo-4,5,6,7-tetrahydro-1H-pyrazolo[3,4-b]pyridin-5-yl)-3-(trifluoromethyl)benzamide], the IC50 in test [1] was no more than 0.1 µM; in test [2] (setting [4]) it was no more than 200 nM; in test [2] (setting [5]) it was no more than 200 nM. Also, the “% Adduct Formation” value on DCN1 protein was “+++ (MS Emax % adduct formation greater than 80.0 and less than or equal to 100.0)”. The EC50 in test [3] is no more than 0.1 µM. The “Nanostring Ymax obs (%)” value in test [3] is “++ (Nanostring Ymax greater than 50.0 and less than or equal to 100.0)”.
As for `C=C(CN1CCOCC1)C(=O)N[C@H](C)c1nn(-c2ccccc2)c2c1[C@H](c1ccc(F)cc1)[C@H](NC(=O)c1cccc(C(F)(F)F)c1)C(=O)N2CC` (mixture of isomers) [Compound I-8], the results for the IC50 in test [1], in test [2] (setting [4]) and in test [2] (setting [5]) were 0.1 to 1 µM, no more than 200 nM and no more than 200 nM, respectively. The “% Adduct Formation” value at DCN1 protein is “+ (MS Emax % adduct formation greater than or equal to 0.0 and less than or equal to 30.0)”. The EC50 in test [3] is greater than 1 µM. In test [3], the “Nanostring Ymax obs (%)” value was “++ (Nanostring Ymax greater than 50.0 and less than or equal to 100.0)”.
For `C=C(CN1CCC(F)(F)C1)C(=O)NCc1nn(-c2ccccc2)c2c1[C@H](c1ccc(F)cc1)[C@@H](NC(=O)c1cccc(C(F)(F)F)c1)C(=O)N2CC` (racemic) [Compound I-32], the IC50 in test [1] is no more than 0.1 µM; in test [2] (setting [4]), no more than 200 nM; in test [2] (setting [5]), no more than 200 nM. Further, the “% Adduct Formation” value on DCN1 protein was “+ (MS Emax % adduct formation greater than or equal to 0.0 and less than or equal to 30.0)”. In test [3], this compound yielded an EC50 of 0.1 to 1 µM. Besides, the “Nanostring Ymax obs (%)” value in test [3] was “++ (Nanostring Ymax greater than 50.0 and less than or equal to 100.0)”.
With `C=C(C(=O)O)c1nn(-c2ccccc2)c2c1[C@H](c1ccc(F)cc1)[C@H](NC(=O)c1cccc(C(F)(F)F)c1)C(=O)N2CC` [Compound I-153, 2-((4S,5S)-7-ethyl-4-(4-fluorophenyl)-6-oxo-1-phenyl-5-(3-(trifluoromethyl)benzamido)-4,5,6,7-tetrahydro-1H-pyrazolo[3,4-b]pyridin-3-yl)acrylic acid], the IC50 in test [1] was no more than 0.1 µM; in test [2] (setting [4]), no more than 200 nM; in test [2] (setting [6]), 200 to 1000 nM. The “% Adduct Formation” value at DCN1 protein is “++ (MS Emax % adduct formation greater than 30.0 and less than or equal to 80.0)”. This compound also yielded a concentration for a half-maximal effect (EC50) in test [3] of 0.1 to 1 µM. The “Nanostring Ymax obs (%)” value in test [3] was “++ (Nanostring Ymax greater than 50.0 and less than or equal to 100.0)”.
As for `C=C(CO)C(=O)NCc1nn(-c2ccccc2)c2c1[C@@H](c1ccc(F)cc1)[C@H](NC(=O)c1cccc(C(F)(F)F)c1)C(=O)N2CC` [Compound I-106], the values for the IC50 in test [1], in test [2] (setting [4]) and in test [2] (setting [6]) were 0.1 to 1 µM, 200 to 1000 nM and 200 to 1000 nM, respectively. In addition, at DCN1 protein, the “% Adduct Formation” value is “+ (MS Emax % adduct formation greater than or equal to 0.0 and less than or equal to 30.0)”. Besides, the EC50 in test [3] is greater than 1 µM. The “Nanostring Ymax obs (%)” value in test [3] was “++ (Nanostring Ymax greater than 50.0 and less than or equal to 100.0)”.
For the compound `CCN1C(=O)[C@@H](NC(=O)c2cccc(C(F)(F)F)c2)[C@@H](c2ccc(F)cc2)c2c(C(=O)N3CCCC[C@H]3C#N)nn(-c3ccccc3)c21` (mixture of isomers) [Compound I-270], the half-maximal inhibitory concentration (IC50) in test [1] was no more than 0.1 µM; in test [2] (setting [4]) it was no more than 200 nM; in test [2] (setting [5]), no more than 200 nM. The “% Adduct Formation” value at DCN1 protein was “+++ (MS Emax % adduct formation greater than 80.0 and less than or equal to 100.0)”. This compound also registered an EC50 in test [3] of 0.1 to 1 µM. In test [3], the “Nanostring Ymax obs (%)” value was “++ (Nanostring Ymax greater than 50.0 and less than or equal to 100.0)”.
In the case of `C=C(C(=O)NCc1nn(-c2ccccc2)c2c1[C@@H](c1ccc(F)cc1)[C@H](NC(=O)c1cccc(C(F)(F)F)c1)C(=O)N2CC)C(C)N1CCOCC1` (mixture of isomers) [Compound I-88], the IC50 was no more than 0.1 µM in test [1], no more than 200 nM in test [2] (setting [4]) and no more than 200 nM in test [2] (setting [5]). Besides, on DCN1 protein, the “% Adduct Formation” value is “+ (MS Emax % adduct formation greater than or equal to 0.0 and less than or equal to 30.0)”. For the same compound, the EC50 in test [3] was greater than 1 µM. Moreover, the “Nanostring Ymax obs (%)” value in test [3] was “+ (Nanostring Ymax greater than or equal to 0.0 and less than or equal to 50.0)”.
Take `CCN1C(=O)[C@@H](NC(=O)c2cccc(C(F)(F)F)c2)[C@@H](c2ccc(F)cc2)c2c(NC(=O)[C@@H](C)Cl)nn(-c3ccccc3)c21` (mixture of isomers) [Compound I-101]: the IC50 in test [1] fell in the range of 0.1 to 1 µM; in test [2] (setting [4]), 200 to 1000 nM; in test [2] (setting [6]), 200 to 1000 nM. On DCN1 protein, the “% Adduct Formation” value was “+ (MS Emax % adduct formation greater than or equal to 0.0 and less than or equal to 30.0)”. The compound also had an EC50 in test [3] greater than 1 µM. Besides, the “Nanostring Ymax obs (%)” value in test [3] was “++ (Nanostring Ymax greater than 50.0 and less than or equal to 100.0)”.
With `CCN1C(=O)[C@@H](NC(=O)c2cccc(C(F)(F)F)c2)[C@@H](c2ccc(F)cc2)c2c(NC(=O)CCl)nn(-c3ccccc3)c21` (racemic) [Compound I-161], the values for the IC50 in test [1], in test [2] (setting [4]) and in test [2] (setting [6]) were no more than 0.1 µM, no more than 200 nM and 1000 to 3000 nM, respectively. Also, the “% Adduct Formation” value at DCN1 protein was “+ (MS Emax % adduct formation greater than or equal to 0.0 and less than or equal to 30.0)”. The compound further yielded an EC50 in test [3] of 0.1 to 1 µM. In addition, the “Nanostring Ymax obs (%)” value in test [3] is “++ (Nanostring Ymax greater than 50.0 and less than or equal to 100.0)”.
Turning to `CCN1C(=O)[C@@H](NC(=O)c2cccc(C(F)(F)F)c2)[C@@H](c2ccc(F)cc2)c2c(C(=O)N3C[C@H](OC)C[C@H]3C#N)nn(C3CCOCC3)c21` [Compound I-358], the results for the IC50 in test [1], in test [2] (setting [4]) and in test [2] (setting [5]) were no more than 0.1 µM, no more than 200 nM and no more than 200 nM, respectively. At DCN1 protein, the “% Adduct Formation” value is “+++ (MS Emax % adduct formation greater than 80.0 and less than or equal to 100.0)”. The compound further registered a 50% effective concentration (EC50) in test [3] of no more than 0.1 µM. Besides, the “Nanostring Ymax obs (%)” value in test [3] is given as “+++ (Nanostring Ymax greater than 100.0)”.
For the compound `CCN1C(=O)[C@@H](NC(=O)c2cccc(C(F)(F)F)c2)[C@@H](c2ccc(F)cc2)c2c(C(=O)N3CC[C@H](OC)[C@H]3C#N)nn(C3CCOCC3)c21` [Compound I-359], the IC50 in test [1] is no more than 0.1 µM; in test [2] (setting [4]), no more than 200 nM; in test [2] (setting [5]), no more than 200 nM. Further, on DCN1 protein, the “% Adduct Formation” value was “+++ (MS Emax % adduct formation greater than 80.0 and less than or equal to 100.0)”. For the same compound, the 50% effective concentration (EC50) in test [3] is no more than 0.1 µM. Further, the “Nanostring Ymax obs (%)” value in test [3] is “+++ (Nanostring Ymax greater than 100.0)”.
